Tests used:
JEV (P3 strain) = assay: CPE-based EC50 assay, JEV-infected BHK-21 cells; format: cell-based, Japanese encephalitis virus; details: for EC50: Japanese encephalitis virus, BHK-21, 120 h; for selectivity index: from CC50 and EC50 in BHK-21 cells
Procedure: (§1) Cell viability was evaluated by Celltiter-Glo Luminescent Cell Viability Assay reagent (Promega, Madison, WI, USA) following the manufacturer's protocol. An equal volume of Celltiter-Glo reagents was added to the cells in 96-well white plates (Corning, Tewksbury, MA, USA) and mixed for 2 min on an orbital shaker and incubated for a further 10 min at room temperature. The luminescence of each well was measured by a 1450 MicroBeta TriLux (Perkin Elmer, Waltham, MA, USA). Percentage of cell viability was calculated as follows: Percentage of cell viability = 100× (luminescence of experimental group/luminescence of control group).
BHK-21 cells were seeded onto 96-well plates at 10,000 cells per well. After 12 h incubation, the culture supernatant was replaced with maintenance medium. One microliter of each compound was added to 99 µL maintenance medium in the first well, followed by twofold serial dilutions for two wells. After full mixing in the third well, 50 µL medium was discarded. Then, 50 µL maintenance medium containing 0.02 MOI JEV was added to each well. The plates were subjected to 30 s horizontal shaking to achieve thorough mixing. Three wells of mock-infected cells as well as three wells of JEV-infected cells containing 1% DMSO were set on each plate as controls. After 120 h incubation, the percentage of CPE inhibition was calculated as previously described: Percentage of inhibition = (luminescence of experimental group – average luminescence of virus control) / (average luminescence of cell control – average luminescence of virus control) ×100.
BHK-21 cells were seeded in 96-well white plates at 10,000 cells per well. Twelve hours later, the growth medium was replaced with maintenance medium containing 0.01 MOI JEV as well as different concentrations of compounds. Cell incubation was continued for 120 h, and the percentage of inhibition was measured as described above. The EC50 values were calculated by nonlinear regression analysis.

[1] = Cytotoxicity of compounds (Celltiter-Glo cell viability); format: cell-based; details: hamster; BHK-21 cells, 120 h incubation; read-out: CC50 (50% cytotoxicity concentration)
Procedure: as §1
BHK-21 cells were seeded in 96-well white plates at 10,000 cells per well. After 12 h incubation for cell attachment, different concentrations of compounds were added to the cells. Cell viability was tested as described above after 120 h incubation. The 50% cytotoxicity concentration (CC50) was calculated by nonlinear regression analysis.

JEV [2] = assay: Western blotting of JEV envelope (E) protein expression in infected BHK-21 cells; format: cell-based, Japanese encephalitis virus; details: MOI 0.01, 48 h, normalized to GAPDH
Procedure: BHK-21 cells in 12-well plates were infected with JEV at MOI 0.01. The compounds were then added to cells at final concentrations of 10 and 20 µM. After incubation for 48 h, expression of JEV envelope (E) protein was detected by western blotting. The cells were collected after trypsin digestion and washed in PBS. The cell suspension was mixed with an equal volume of 2×SDS sample buffer. The proteins were electrophoresed in 12% SDS-PAGE and transferred to a nitrocellulose filter membrane (Millipore, Darmstadt, Germany). Western blotting was performed with JEV E protein-specific monoclonal antibody (Mab; 1∶500, constructed in our laboratory) or GAPDH-specific Mab (1∶1000; Proteintech, Chicago, IL, USA) as the primary antibodies, followed by addition of horseradish-peroxidase-conjugated goat anti-mouse IgG (Boster, Wuhan, China) as the secondary antibody. Finally, the protein blots were detected with SuperSignal West Pico Chemiluminescent Substrate (Thermo Scientific, Rockford, IL, USA) and imaged by a MF-ChemiBIS 3.2 (DNR Bio-Imaging Systems, Mahale Hahamisha, Israel). The expression of E and GAPDH was quantified by gray-value analysis using software ImageJ. The expression of E protein was normalized by the expression of GAPDH and the changes of E expression were calculated by comparing to the non-compound treated group.

JEV [3] = assay: Indirect immunofluorescence assay (IFA, anti-NS5) in infected BHK-21 cells; format: cell-based, Japanese encephalitis virus; details: MOI 0.01, 48 h post-infection; for JEV-negative cells: 5 µM compound; for JEV replication / JEV-positive cells (IFA): 20 µM compound
Procedure: BHK-21 cells were seeded in 12-well plates and inoculated with JEV at MOI 0.01 after 12 h incubation. The compounds were added to cells at concentrations of 5 or 20 µM. After incubation for a further 48 h, virus replication in the cells was evaluated by IFA. The cells were fixed in formaldehyde for 5 min and were incubated with anti-NS5 Mab (1∶500) and then FITC-conjugated goat anti-mouse antibody (Boster) for 30 min respectively. Finally, the cells were stained with DAPI (Sigma-Aldrich) and imaged by a fluorescence microscope (Olympus IX70; Olympus, Tokyo, Japan).

JEV [4] = assay: Plaque reduction assay; format: cell-based, Japanese encephalitis virus
Procedure: BHK-21 cells were plated in 96-well plates at a density of 10,000 cells per well and grown for 12 h for cell attachment. The cells were infected with JEV at MOI 0.01 in the presence of different concentrations (20, 15, 10, and 5 µM) of compounds. Each concentration was assayed in triplicate. Forty-eight hours post-infection, the viruses in each group were harvested by freezing/thawing three times and mixed in a tube. Then, 50 µL virus suspension was inoculated into BHK-21 cells in 12-well plates for the plaque assay, as previously described.

[5] = cited from earlier work
[6] = cited from earlier work; remark: listed apart in the source

| SMILES | EC50 (JEV (P3 strain)) | selectivity index (JEV (P3 strain)) | CC50 at 120 h [1] | E expression decrease (gray-value analysis) (JEV [2]; 10 µM compound) | E expression decrease (gray-value analysis) (JEV [2]; 20 µM compound) | JEV-negative cells (JEV [3]) | JEV replication / JEV-positive cells (IFA) (JEV [3]) | replication of JEV (JEV [4]; 20 or 15 µM compound) | MLD50 [5] | number of plaques (JEV [4]; 10 µM compound, 48 h, MOI 0.01) | virus titer (JEV [4]; 10 µM compound, 48 h, MOI 0.01, untreated 2.7×10^6 PFU/mL) | ability to enter the brain [6] |
| --- | --- | --- | --- | --- | --- | --- | --- | --- | --- | --- | --- | --- |
| COCCOC(=O)C1=C(C)NC(C)=C(C(=O)OC/C=C/c2ccccc2)C1c1cccc([N+](=O)[O-])c1 (centres unmarked) [cilnidipine] | 6.52 µM | 30.67 | > 200 µM | ~56% | ~75% | ~60% | Absolute inhibition of JEV replication | almost completely inhibited | > 5000 mg/kg | – | – | – |
| O=C(Nc1ccc([N+](=O)[O-])cc1Cl)c1cc(Cl)ccc1O [niclosamide] | 5.8 µM | 7.49 | 43.3 µM | about 85% | – | ~30% | few cells were JEV-positive | – | – | – | – | – |
| CCCCCCN(CCCCCC)C(=O)Cc1c(-c2ccc(F)cc2)[nH]c2ccccc12 [FGIN-1-27, N,N-dihexyl-2-(4-fluorophenyl)indole-3-acetamide] | 3.21 µM | 38.79 | 124 µM | – | – | about 80% | few cells were JEV-positive | – | – | < 20 | < 400 PFU/mL | had the ability to enter the brain |

Reference: publication PMC3857149, “Identification of Three Antiviral Inhibitors against Japanese Encephalitis Virus from Library of Pharmacologically Active Compounds 1280” (PLoS ONE, 2013)
